The values that follow come from patent publication US20130150363A1, “Method of Treating Cancer Using a cMET and AXL Inhibitor and an ErbB Inhibitor” (GlaxoSmithKline, priority 2008, published 2013).

For assay [1], the system named is MKN-45 gastric carcinoma cells. In words: Cell growth inhibition (CellTiter-Glo), MKN-45. The settings on record: Homo sapiens, MKN-45, MKN-45 (HER3-over). Format: cell-based. The text has this:
(§1) Esophageal carcinoma cell line OE33 was purchased from ECACC European Collection of Cell Cultures (UK). Breast cancer cell line JIMT-1 and gastric carcinoma cell line MKN-45 were purchased from Deutsche Sammlung von Mikroorganismen and Zellkulturen GmbH (Germany); KPL-4, a human breast cancer cell line was kindly provided by Prof. J Kurebayashi (Kawasaki Medical School, Kurashiki, Japan). […] The LICR-LON-HN5 head and neck carcinoma cell line (HN5) was a gift from the Institute of Cancer Research, Surrey, U.K. HN5C12 was developed by single-cell cloning of HN5 followed by exposure to increasing concentrations of lapatinib. […] Cell growth inhibition was determined via CellTiter-Glo cell viability assays. […] ATP levels were determined by adding Cell Titer Glo0 (Promega), incubating for 20 minutes then the luminescent signal was read on the SpectraMax M5 plate with a 0.5 second integration time. Cell growth was calculated relative to vehicle (DMSO) treated control wells. […] CI values were calculated with the interpolated IC50 values and the mutually non-exclusive equation derived by Chou and […](a)+Db/IC50(b)+(Da×Db)/(IC50(a)×IC50(b)) where IC50(a) is the IC50 of the inhibitor A; IC50(b) is the IC50 for the inhibitor B; […] […] EOHSA at each dose was calculated as the minimum difference in average % inhibition between the combination and each monotherapy, from the appropriate ANOVA contrast. […]
For orientation: In ATP-based viability assays light output follows the ATP content of the culture.

In assay [2] the test system is phosphorylation of HER2, AKT, ERK and cyclin D1 in BT474 cells. In words: Western blot analysis, BT474. Type of assay: cell-based, human. The settings on record: BT474, 1 μM, 4 h. (A western blot detects proteins with antibodies after separation by electrophoresis.)
Experimental: Cells were plated at 250,000 to 500,000 per well in six-well plates (Falcon multiwell, Becton Dickinson, Franklin Lakes, N.J.). The following day, cells were treated with compounds in the growth medium containing 10% FBS. After treatment, cells were washed with cold PBS and lysed in the culture dishes using cell lysis buffer [40 mmol/L Tris-HCl (pH 7.4), 10% glycerol, 50 mmol/L beta-glycerophosphate, 5 mmol/L EGTA, 2 mmol/L EDTA, 0.35 mmol/L vanadate, 10 mmol/L NaF, and 0.3% Triton X-100] containing protease inhibitors (Complete Protease Inhibitor Tablets, Boehringer Mannheim, Indianapolis, Ind.). […] The membrane blots were rinsed with PBS and blocked in Odyssey Blocking buffer for 1 h at RT. Blots were probed with antibodies against specific proteins in blocking buffer plus 0.1% Tween 20 and incubated for 2 h at room temperature. The membranes were washed and incubated with IRDye 680 or IRDye 800 secondary antibodies at RT for 1 h in blocking buffer plus 0.1% Tween 20. The membranes were developed with Odyssey Infrared Imaging System (LI-COR Biosciences, Lincoln, Nebr.).
Cell lysate (50 μg of total protein) or proteins immunoprecipitated with anti-phospho-Tyrosine antibody were loaded in SDS-PAGE gel. The antibody against specific protein was used in the western blot analysis.
In a further assay the test system is BT474 cells. In words: Cell apoptosis assays (Cell Death ELISA, Caspase-Glo 3/7), BT474. Format: cell-based, human. The note with it: BT474, presence of HGF (FIG. 4). On the procedure: Cell apoptosis was measured by both a cell death ELISA method, which measures DNA fragmentation, a hallmark of apoptosis; and Caspase-Glo® 3/7 assay which detects the activity of caspase 3/7, one of the execution enzymes for apoptosis in cells.
The Cell Death ELISA^Plus kit (Roche, Mannheim, Germany) was used according to the manufacturer's instructions. Cells were seeded in 96-well plates at 10,000 per well. After 24 h, cells were dosed and grown for an additional 48 h in RPMI 1640 with 10% FBS in 5% CO2 at 37° C. Cytoplasmic fractions of control and treated cells were transferred into streptavidin-coated 96-well plates and incubated with biotinylated mouse antihistone antibody and peroxidase-conjugated mouse anti-DNA antibody at room temperature for 2 h. Absorbance was determined at 405-490 nm using a Spectra Max Gemini microplate reader (Molecular Devices, Sunnyvale, Calif.).
The Caspase-Glo® 3/7 assay (Promega) is a homogeneous luminescent assay that measures caspase-3 and -7 activities. Cells were seeded in 96-well plates at 5,000 per well. […] Caspase 3/7 activity was detected by adding luminogenic caspase-3/7 substrate, which contains the tetrapeptide sequence DEVD, in a reagent optimized for caspase activity, luciferase activity and cell lysis, according to the manufacturer's instructions.
Background: ELISA stands for enzyme-linked immunosorbent assay.

For assay [3], the system named is AGS gastric carcinoma cells. In words: Cell growth inhibition (CellTiter-Glo), AGS. Type of assay: cell-based. The note with it: Homo sapiens, 72 h, gastric_AGS, 3 days.
From the text: as §1

In another assay the test system is lung_H1975 tumor cells. In words: Cell growth inhibition (CellTiter-Glo), H1975. Type of assay: cell-based. The settings on record: Homo sapiens, NCI-H1975, 72 h, 3 days.
The test system of assay [4] is SNU-16 gastric carcinoma cells. In words: Cell growth inhibition (CellTiter-Glo), SNU-16. Format: cell-based. The settings on record: Homo sapiens, SNU-16, 72 h, 3 days.
From the text: as §1

pIC50: −log10 of the molar value.

As a reminder, the pIC50 is the negative decadic logarithm of the IC50, by convention in mol/L. In the case of `CS(=O)(=O)CCNCc1ccc(-c2ccc3ncnc(Nc4ccc(OCc5cccc(F)c5)c(Cl)c4)c3c2)o1` [Lapatinib, N-(3-chloro-4-{[(3-fluorophenyl)methyl]oxy}phenyl)-6-[5-({[2-(methylsulfonyl)ethyl]amino}methyl)-2-furanyl]-4-quinazolinamine], the pIC50 in assay [1] (+HRG (10 ng/mL)) is 5.30. The pIC50 in assay [1] (−HRG) was 5.21. In addition, in assay [2], the “downstream signaling: phosphorylation of AKT and ERK, level of cyclin D1” value was “inhibits”; the “phosphorylation of HER2” value is “inhibits”. For the same molecule, the “apoptosis induction (DNA fragmentation and caspase 3/7 activation)” value in the assay on BT474 cells is listed as “induces apoptosis”.
Turning to `C#Cc1cccc(Nc2ncnc3cc(OCCOC)c(OCCOC)cc23)c1` [Erlotinib, N-(3-ethynylphenyl)-6,7-bis{[2-(methyloxy)ethyl]oxy}-4-quinazolinamine], the pIC50 was less than 5.00 in assay [3] (+HGF (2 ng/mL)); less than 5.00 in assay [3] (−HGF); less than 5.00 in the assay with lung_H1975 tumor cells (lung_H1975, +HGF (2 ng/mL)); less than 5.00 in the assay on lung_H1975 tumor cells (lung_H1975, −HGF); 5.03 in assay [4] (gastric_SNU16, +HGF (2 ng/mL)); 5.19 in assay [4] (gastric_SNU16, −HGF).
